Measurements taken from patent US8952042B2, “FXR (NR1H4) binding and activity modulating compounds” (Phenex Pharmaceuticals AG, priority 2009, dated 2015).

Columns and labels:
[1] = UV photostability, irradiation at 254 nm, 1H NMR; type: physicochemical; details: 70 h UV irradiation at 254 nm
Method: The compounds of interest were dissolved using ethanol and their UV spectrum was analyzed to determine their λmax to establish an irradiation wavelength to be used in the study (see FIG. 2). The best wavelength for testing the UV stability of the —CH═CH— double bond was determined to be 254 nm. Further material of the compounds was then dissolved in deuterated ethanol and the ^1H NMRs (400 MHz) analyzed (T=0). Each sample was then recovered from the NMR tube and subjected to UV irradiation (254 nm) for 4 h, 15 h and 70 h. At the respective timepoints the individual samples were re-analyzed by ^1H NMR and the signal for the —CH═CH— protons evaluated to assess the percent of remaining intact double bond. Other changes in the chemical shift signals were also analyzed for further changes on the overall structure of the molecules.

[2] = system: BSEP and SHP gene expression; assay: FXR target gene induction in mouse liver (qRT-PCR), high fat diet mice; type: in vivo, C57/bI6 mice; details: HFD mice, estimated 30 mg/kg daily in food, normalized to TBP
Method: C57/bI6 mice (Elevage Janvier, France) at the age of 8 weeks were put on a high fat diet (60% kcal from fat, Sniff, Soest, Germany, Cat. No. E15771-30 (Mod. Surwit)+0.5 cholesterol (Sigma-Aldrich, Germany) added) for 4 weeks. Baseline blood samples were taken after overnight starvation and fasting plasma glucose was determined using a Roche Accucheck device. In parallel L1-heparin plasma was generated for the determination of baseline total triglyceride (TG) and total cholesterol (TC) levels. Animals were maintained on the HFD+0.5% cholesterol diet for 8 weeks and weekly blood samples were taken for the monitoring of plasma TG and TC levels using routine enzymatic analysis kits (WAKO Diagnostics, Neuss, Germany). The test compounds were dissolved in 100% palm fat and then mixed into molten food for an estimated daily uptake of 30 mg/kg based on averaged food consumption in the 4 weeks HFD adaptation period. FIGS. 4 and 5 show the development of TG and TC values.
RNA was isolated using RNAzol RT Reagent (Fermentas) and mRNA levels determined by quantitative reverse-transcription polymerase chain reaction (qRT-PCR) using Absolute QPCR Rox Mix (Invitrogen) and a real-time PCR machine from Applied Biosystems (CA). Primer and probe sequences (5′ to 3′) used were: SHP, Fwd […]; Rev […]; probe 56-FAM/[…] and BSEP, Fwd […]; Rev […]; probe 56-FAM/ATGGCT […]. All samples were run in duplicate. […]

O=C(O)c1cccc(C2CC2c2ccc(OCc3c(-c4c(Cl)cccc4Cl)noc3C3CC3)cc2Cl)c1 (racemic) [Example 4, 3-(2-(2-chloro-4-((5-cyclopropyl-3-(2,6-dichlorophenyl)isoxazol-4-yl)methoxy)phenyl)-cyclopropyl)benzoic acid]
behaviour in 1H NMR spectrum after prolonged UV irradiation [1]: inert

O=C(O)c1ccc(C2CC2c2ccc(OCc3c(-c4c(Cl)cccc4Cl)noc3C3CC3)cc2Cl)cc1 (racemic) [Example 12, 4-(2-(2-chloro-4-((5-cyclopropyl-3-(2,6-dichlorophenyl)isoxazol-4-yl)methoxy)phenyl)cyclopropyl)benzoic acid]
gene expression of BSEP in liver [2]: 6 fold | gene expression of SHP in liver [2]: 6 fold
